Test results: article PMC4990249, “Mitochondrial Probe Methyltriphenylphosphonium (TPMP) Inhibits the Krebs Cycle Enzyme 2-Oxoglutarate Dehydrogenase” (PLoS ONE, 2016)

Tests used:
[1] = target: T1, 2-oxoglutarate dehydrogenase complex (OGDHC) (Sus scrofa, UniProt K9IVI1+P09623+Q9N0F1); assay: Michaelis-Menten kinetics of purified complex, NADH absorbance at […] nm, […] TPMP; assay type: biochemical
T1 construct: gene OGDH; purified OGDHC enzyme (Sigma K1502), intact complex; with E2 component (dihydrolipoyl transsuccinylase) and E3 component (dihydrolipoyl dehydrogenase) of the complex
T1 sequence (K9IVI1 41-1023): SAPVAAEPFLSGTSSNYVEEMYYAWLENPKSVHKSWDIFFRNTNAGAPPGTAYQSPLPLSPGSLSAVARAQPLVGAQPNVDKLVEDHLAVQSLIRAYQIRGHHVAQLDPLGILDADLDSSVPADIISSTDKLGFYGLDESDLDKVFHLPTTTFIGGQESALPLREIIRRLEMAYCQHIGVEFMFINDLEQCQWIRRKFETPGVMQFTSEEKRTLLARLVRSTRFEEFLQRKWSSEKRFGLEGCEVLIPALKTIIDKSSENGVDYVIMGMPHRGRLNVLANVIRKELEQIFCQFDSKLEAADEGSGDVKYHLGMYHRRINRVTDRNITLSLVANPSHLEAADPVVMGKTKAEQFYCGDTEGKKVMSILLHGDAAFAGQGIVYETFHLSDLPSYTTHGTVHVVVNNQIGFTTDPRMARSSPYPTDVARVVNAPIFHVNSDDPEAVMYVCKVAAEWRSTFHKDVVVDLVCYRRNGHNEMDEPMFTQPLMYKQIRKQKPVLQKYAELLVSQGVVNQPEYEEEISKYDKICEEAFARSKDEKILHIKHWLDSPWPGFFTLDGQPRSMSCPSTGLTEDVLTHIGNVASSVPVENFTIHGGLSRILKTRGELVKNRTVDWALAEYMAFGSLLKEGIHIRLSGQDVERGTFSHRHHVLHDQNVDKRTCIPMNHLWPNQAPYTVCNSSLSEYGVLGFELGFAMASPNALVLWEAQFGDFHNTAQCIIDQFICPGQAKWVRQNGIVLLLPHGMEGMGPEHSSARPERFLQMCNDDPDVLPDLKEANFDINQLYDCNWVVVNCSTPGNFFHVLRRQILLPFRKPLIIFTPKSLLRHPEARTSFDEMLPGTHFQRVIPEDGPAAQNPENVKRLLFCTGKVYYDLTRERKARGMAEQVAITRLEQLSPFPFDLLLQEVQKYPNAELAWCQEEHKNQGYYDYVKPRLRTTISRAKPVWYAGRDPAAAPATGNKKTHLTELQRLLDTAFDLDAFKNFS
T1 sequence (Q9N0F1 69-455): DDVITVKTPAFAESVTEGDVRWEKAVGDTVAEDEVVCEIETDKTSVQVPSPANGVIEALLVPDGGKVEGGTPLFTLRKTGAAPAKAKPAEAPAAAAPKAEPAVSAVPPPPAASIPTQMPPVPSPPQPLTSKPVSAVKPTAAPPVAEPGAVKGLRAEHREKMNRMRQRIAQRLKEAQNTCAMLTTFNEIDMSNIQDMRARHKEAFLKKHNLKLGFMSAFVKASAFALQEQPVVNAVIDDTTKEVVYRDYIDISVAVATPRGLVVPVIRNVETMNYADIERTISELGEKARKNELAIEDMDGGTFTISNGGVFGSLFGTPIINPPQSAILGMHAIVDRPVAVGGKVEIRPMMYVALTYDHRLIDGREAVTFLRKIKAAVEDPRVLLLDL
T1 sequence (P09623 36-509): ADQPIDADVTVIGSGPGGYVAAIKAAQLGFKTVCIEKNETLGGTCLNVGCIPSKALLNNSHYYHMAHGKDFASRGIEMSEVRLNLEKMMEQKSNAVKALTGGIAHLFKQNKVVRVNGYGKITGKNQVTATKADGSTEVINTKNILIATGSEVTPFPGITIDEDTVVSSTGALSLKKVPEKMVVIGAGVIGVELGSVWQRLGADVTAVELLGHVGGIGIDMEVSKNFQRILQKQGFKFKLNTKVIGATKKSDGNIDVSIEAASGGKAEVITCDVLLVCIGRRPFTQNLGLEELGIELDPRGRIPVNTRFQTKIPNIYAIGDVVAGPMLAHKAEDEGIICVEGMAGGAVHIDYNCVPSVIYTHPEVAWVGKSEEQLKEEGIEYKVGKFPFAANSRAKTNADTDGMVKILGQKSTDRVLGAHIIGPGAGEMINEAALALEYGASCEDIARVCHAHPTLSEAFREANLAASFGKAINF

[2] = target: T2, 2-oxoglutarate dehydrogenase complex (OGDHC) (Rattus norvegicus, UniProt Q01205+Q5XI78+Q6P6R2); assay: biochemical; design: gene Ogdh
T2 sequence (Q5XI78 41-1023): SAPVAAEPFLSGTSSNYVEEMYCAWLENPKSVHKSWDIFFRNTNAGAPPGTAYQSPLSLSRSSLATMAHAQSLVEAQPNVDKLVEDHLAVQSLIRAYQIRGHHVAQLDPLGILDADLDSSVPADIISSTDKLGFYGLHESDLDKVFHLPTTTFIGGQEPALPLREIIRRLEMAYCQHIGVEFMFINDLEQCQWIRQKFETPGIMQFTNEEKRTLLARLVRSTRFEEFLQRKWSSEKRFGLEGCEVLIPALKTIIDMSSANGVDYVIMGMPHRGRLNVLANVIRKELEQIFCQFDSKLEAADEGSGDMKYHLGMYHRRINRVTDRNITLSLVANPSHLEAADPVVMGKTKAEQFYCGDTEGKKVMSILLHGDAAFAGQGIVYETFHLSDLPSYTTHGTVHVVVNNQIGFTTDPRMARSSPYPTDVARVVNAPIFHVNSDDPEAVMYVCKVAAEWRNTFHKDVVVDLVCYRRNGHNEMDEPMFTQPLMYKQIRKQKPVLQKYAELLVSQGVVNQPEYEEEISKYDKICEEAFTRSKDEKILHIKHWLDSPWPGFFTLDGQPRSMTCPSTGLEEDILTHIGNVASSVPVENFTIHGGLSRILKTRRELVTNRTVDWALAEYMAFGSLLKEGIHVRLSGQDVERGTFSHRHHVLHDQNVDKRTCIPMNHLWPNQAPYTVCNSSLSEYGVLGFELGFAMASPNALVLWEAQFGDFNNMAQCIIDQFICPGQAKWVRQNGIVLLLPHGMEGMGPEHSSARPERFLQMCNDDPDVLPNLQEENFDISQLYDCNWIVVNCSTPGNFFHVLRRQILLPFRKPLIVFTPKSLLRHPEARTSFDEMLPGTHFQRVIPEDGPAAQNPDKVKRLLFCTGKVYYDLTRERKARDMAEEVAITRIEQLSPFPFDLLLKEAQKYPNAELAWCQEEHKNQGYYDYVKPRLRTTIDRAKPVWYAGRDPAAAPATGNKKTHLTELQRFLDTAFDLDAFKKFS
T2 sequence (Q01205 69-454): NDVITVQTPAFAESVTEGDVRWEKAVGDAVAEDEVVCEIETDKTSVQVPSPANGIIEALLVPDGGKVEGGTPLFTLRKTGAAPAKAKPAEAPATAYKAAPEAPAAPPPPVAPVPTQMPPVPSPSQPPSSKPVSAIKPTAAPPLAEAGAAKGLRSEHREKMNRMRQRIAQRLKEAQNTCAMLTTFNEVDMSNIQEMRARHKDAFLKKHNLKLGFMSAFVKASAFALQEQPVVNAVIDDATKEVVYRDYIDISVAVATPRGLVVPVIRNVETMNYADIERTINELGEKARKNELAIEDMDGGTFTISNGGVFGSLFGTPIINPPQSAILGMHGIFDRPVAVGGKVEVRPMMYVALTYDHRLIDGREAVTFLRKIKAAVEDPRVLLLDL
T2 sequence (Q6P6R2 36-509): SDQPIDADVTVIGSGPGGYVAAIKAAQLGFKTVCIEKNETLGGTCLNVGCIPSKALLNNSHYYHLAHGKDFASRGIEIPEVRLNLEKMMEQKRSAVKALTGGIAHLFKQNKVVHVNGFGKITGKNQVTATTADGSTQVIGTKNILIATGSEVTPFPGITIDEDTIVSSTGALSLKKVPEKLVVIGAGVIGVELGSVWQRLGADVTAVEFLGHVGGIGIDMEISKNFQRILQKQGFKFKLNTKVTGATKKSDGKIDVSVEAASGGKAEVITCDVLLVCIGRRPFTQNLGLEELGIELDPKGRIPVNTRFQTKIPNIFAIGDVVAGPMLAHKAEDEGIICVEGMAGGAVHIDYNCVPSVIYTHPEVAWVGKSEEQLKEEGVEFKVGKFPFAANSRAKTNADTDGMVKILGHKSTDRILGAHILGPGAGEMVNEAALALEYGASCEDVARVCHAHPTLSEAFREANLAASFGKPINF

[3] = target: T2, 2-oxoglutarate dehydrogenase complex (OGDHC); assay: spectrophotometric OGDHC activity (A340) at […] compound in muscle homogenate; assay type: cell-based; design: gene Ogdh; native complex in rat skeletal muscle homogenate enriched in mitochondrial fraction; with E2 and E3 components of the complex; details: read-out: % of control activity at 1 mM

remaining activity at 1000 µM [3] [%]	Structure (SMILES)	Michaelis-Menten kinetics of purified complex, NADH absorbance at 340 nm, 0-5 mM [1]	IC50 [2] [mM]
–	C[P+](c1ccccc1)(c1ccccc1)c1ccccc1 [TPMP, Methyltriphenylphosphonium]	The pattern of decreasing Vmax and increasing Km fits in a mixed-inhibition model.	3.93
15.9	CCCCC[P+](c1ccccc1)(c1ccccc1)c1ccccc1 [Pentyl, pentyltriphenylphosphonium]	–	–
60.7	CCC[P+](c1ccccc1)(c1ccccc1)c1ccccc1 [Propyl, propyltriphenylphosphonium]	–	–
